Values of other authors as cited in publication PMC9851200, “Multiparameter phenotypic screening for endogenous TFEB and TFE3 translocation identifies novel chemical series modulating lysosome function” (Autophagy, 2022).

Columns and labels:
Parameters in all cases: method as in original PKIS2 published data
[1] = target: kinases (KINOMEscan panel) (Homo sapiens, UniProt P11802); conditions: Published KINOMEscan, ref original PKIS2 published data, cited from earlier work
[2] = target: kinases (KINOMEscan panel) (Homo sapiens, UniProt P41240); conditions: kinase CSK; Published KINOMEscan; ref original PKIS2 published data; cited from earlier work
[3] = target: kinases (KINOMEscan panel) (Homo sapiens, UniProt Q9HC98); conditions: kinase NEK6; Published KINOMEscan; ref original PKIS2 published data; cited from earlier work
[4] = target: T1, kinases (KINOMEscan panel) (Homo sapiens, UniProt P51817); conditions: kinase PRKX; Published KINOMEscan; ref original PKIS2 published data; cited from earlier work
T1 sequence (P51817 1-358): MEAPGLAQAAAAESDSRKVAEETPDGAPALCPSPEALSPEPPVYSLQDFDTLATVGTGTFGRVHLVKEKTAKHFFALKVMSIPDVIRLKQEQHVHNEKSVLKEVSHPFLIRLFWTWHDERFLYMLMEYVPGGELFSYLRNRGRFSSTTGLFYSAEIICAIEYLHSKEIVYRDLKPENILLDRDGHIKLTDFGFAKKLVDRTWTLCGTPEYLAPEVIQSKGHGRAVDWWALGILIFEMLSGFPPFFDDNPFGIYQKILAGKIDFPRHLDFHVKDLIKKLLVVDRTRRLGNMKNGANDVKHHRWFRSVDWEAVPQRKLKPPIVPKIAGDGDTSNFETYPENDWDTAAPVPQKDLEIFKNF

[5] = target: T2, kinases (KINOMEscan panel) (Homo sapiens, UniProt Q86YV6); conditions: kinase MYLK4; Published KINOMEscan; ref original PKIS2 published data; cited from earlier work
T2 sequence (Q86YV6 1-388): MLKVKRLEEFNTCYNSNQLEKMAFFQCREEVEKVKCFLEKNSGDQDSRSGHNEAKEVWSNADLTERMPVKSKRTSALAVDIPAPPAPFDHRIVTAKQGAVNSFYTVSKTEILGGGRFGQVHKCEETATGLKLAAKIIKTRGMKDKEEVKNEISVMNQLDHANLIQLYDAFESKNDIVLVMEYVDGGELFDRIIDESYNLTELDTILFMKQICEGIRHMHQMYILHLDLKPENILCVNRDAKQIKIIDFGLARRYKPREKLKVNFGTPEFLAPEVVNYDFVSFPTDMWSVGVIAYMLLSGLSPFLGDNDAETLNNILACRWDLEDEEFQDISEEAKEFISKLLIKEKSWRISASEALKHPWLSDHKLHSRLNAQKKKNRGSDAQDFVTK

[6] = target: T3, kinases (KINOMEscan panel) (Homo sapiens, UniProt O14757); conditions: CHEK1; Published KINOMEscan; ref original PKIS2 published data; cited from earlier work
T3 sequence (O14757 1-476): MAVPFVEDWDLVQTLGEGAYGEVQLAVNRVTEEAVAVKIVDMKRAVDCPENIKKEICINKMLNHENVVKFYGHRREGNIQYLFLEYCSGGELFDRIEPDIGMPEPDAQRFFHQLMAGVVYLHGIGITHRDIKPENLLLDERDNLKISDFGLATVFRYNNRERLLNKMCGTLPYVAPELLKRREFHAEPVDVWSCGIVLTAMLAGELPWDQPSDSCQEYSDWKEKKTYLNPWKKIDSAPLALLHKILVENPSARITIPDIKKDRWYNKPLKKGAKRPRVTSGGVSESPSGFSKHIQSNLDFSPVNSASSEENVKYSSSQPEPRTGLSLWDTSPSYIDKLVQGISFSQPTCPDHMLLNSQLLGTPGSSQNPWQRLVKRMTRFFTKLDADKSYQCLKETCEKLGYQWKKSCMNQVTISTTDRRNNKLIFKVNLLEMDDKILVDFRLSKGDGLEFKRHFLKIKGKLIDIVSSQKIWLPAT

[7] = target: kinases (KINOMEscan panel) (Homo sapiens, UniProt P00533); conditions: kinase EGFR; Published KINOMEscan; ref original PKIS2 published data; cited from earlier work
[8] = target: kinases (KINOMEscan panel) (Homo sapiens, UniProt O43293); conditions: DAPK3; Published KINOMEscan; ref original PKIS2 published data; cited from earlier work
[9] = target: kinases (KINOMEscan panel) (Homo sapiens, UniProt Q16512); conditions: Published KINOMEscan; ref original PKIS2 published data; cited from earlier work
[10] = target: kinases (KINOMEscan panel) (Homo sapiens, UniProt P24723); conditions: kinase PRKCH; Published KINOMEscan; ref original PKIS2 published data; cited from earlier work
Chain of kinases (KINOMEscan panel) (Homo sapiens, UniProt P24723) (P24723 whole entry): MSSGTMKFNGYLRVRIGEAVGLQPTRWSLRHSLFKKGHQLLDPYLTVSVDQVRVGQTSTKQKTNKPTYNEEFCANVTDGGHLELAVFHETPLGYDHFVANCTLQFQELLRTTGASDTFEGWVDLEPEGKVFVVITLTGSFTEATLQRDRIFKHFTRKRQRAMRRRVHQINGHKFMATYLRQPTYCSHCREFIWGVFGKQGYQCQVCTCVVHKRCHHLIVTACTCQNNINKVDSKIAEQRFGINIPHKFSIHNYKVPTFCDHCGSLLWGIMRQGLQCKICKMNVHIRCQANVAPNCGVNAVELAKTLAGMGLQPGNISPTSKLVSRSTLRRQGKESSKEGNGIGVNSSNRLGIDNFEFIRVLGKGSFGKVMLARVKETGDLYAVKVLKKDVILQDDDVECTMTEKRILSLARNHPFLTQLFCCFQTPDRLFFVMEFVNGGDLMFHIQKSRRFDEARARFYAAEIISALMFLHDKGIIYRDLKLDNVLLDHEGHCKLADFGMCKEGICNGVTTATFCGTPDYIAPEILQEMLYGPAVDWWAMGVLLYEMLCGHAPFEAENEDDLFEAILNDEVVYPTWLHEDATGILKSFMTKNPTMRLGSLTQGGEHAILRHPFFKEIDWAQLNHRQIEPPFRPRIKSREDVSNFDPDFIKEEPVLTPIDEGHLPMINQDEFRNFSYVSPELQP

Chain of kinases (KINOMEscan panel) (Homo sapiens, UniProt P11802) (P11802 whole entry): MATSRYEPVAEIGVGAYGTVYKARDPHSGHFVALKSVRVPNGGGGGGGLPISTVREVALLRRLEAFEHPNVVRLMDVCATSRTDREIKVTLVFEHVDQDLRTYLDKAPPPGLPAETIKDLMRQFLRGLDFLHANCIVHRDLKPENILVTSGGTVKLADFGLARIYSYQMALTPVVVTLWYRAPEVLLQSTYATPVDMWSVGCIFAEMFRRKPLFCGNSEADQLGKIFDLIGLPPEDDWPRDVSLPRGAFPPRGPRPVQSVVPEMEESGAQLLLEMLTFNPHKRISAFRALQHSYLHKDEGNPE
Chain of kinases (KINOMEscan panel) (Homo sapiens, UniProt P41240) (P41240 whole entry): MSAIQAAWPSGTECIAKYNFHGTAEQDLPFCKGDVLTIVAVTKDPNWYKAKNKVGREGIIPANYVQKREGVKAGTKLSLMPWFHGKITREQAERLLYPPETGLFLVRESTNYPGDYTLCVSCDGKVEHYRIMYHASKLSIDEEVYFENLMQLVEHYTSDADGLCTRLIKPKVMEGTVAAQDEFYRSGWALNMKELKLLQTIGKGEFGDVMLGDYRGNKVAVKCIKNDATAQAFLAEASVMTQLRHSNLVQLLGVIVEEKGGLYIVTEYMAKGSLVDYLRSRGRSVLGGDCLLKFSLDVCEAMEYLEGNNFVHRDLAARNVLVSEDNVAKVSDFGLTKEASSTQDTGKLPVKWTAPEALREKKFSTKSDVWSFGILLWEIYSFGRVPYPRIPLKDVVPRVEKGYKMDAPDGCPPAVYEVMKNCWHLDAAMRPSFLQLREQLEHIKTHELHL
Chain of kinases (KINOMEscan panel) (Homo sapiens, UniProt O43293) (O43293 whole entry): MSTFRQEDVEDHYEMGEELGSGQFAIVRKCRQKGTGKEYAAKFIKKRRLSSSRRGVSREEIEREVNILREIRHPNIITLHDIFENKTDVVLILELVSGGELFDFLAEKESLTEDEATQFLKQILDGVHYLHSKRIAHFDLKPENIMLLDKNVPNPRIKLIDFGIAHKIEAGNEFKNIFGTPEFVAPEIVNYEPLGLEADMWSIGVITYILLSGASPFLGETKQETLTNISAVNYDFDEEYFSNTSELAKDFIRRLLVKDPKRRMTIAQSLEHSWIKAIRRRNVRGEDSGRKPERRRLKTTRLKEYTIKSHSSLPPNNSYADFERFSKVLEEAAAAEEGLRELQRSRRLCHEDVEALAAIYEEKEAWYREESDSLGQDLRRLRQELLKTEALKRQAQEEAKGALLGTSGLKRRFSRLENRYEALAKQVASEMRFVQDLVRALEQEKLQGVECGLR
Chain of kinases (KINOMEscan panel) (Homo sapiens, UniProt Q9HC98) (Q9HC98 whole entry): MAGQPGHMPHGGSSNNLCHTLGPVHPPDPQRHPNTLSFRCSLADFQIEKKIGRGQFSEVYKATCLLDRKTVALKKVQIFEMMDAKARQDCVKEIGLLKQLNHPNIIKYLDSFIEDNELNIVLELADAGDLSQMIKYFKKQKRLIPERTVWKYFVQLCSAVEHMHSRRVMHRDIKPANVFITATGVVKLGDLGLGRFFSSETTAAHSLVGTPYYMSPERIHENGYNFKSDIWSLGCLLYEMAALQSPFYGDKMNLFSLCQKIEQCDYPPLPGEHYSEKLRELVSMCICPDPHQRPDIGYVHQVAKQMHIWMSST
Chain of kinases (KINOMEscan panel) (Homo sapiens, UniProt P00533) (P00533 25-1210): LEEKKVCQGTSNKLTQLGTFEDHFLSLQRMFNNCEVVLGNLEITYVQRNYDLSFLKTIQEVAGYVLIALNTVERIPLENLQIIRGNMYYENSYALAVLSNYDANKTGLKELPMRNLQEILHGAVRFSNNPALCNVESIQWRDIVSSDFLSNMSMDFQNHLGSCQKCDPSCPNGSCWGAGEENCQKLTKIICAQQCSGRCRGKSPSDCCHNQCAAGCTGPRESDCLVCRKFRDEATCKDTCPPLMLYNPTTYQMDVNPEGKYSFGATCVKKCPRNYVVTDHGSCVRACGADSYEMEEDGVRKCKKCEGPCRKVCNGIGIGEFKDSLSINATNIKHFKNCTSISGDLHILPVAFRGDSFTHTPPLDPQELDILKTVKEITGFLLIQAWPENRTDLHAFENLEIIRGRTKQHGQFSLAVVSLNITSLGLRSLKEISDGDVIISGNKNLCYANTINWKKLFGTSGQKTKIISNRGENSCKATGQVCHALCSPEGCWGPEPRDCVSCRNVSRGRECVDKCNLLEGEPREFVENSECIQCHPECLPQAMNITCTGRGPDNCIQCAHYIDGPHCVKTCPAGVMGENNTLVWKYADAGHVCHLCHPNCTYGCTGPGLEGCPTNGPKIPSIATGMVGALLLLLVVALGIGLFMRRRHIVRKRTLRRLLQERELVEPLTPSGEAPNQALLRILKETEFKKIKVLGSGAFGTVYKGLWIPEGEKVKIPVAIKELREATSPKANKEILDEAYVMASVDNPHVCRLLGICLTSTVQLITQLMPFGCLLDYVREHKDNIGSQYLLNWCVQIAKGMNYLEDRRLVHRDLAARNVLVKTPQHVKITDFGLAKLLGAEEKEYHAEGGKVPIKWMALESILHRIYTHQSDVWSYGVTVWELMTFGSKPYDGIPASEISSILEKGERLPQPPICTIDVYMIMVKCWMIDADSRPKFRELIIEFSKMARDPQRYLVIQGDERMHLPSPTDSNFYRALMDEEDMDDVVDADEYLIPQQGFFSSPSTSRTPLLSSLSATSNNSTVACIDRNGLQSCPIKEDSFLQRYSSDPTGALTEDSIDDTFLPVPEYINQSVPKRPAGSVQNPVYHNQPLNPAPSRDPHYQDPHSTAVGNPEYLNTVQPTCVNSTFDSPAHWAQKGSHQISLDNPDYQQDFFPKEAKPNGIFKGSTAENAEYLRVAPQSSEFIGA
Chain of kinases (KINOMEscan panel) (Homo sapiens, UniProt Q16512) (Q16512 whole entry): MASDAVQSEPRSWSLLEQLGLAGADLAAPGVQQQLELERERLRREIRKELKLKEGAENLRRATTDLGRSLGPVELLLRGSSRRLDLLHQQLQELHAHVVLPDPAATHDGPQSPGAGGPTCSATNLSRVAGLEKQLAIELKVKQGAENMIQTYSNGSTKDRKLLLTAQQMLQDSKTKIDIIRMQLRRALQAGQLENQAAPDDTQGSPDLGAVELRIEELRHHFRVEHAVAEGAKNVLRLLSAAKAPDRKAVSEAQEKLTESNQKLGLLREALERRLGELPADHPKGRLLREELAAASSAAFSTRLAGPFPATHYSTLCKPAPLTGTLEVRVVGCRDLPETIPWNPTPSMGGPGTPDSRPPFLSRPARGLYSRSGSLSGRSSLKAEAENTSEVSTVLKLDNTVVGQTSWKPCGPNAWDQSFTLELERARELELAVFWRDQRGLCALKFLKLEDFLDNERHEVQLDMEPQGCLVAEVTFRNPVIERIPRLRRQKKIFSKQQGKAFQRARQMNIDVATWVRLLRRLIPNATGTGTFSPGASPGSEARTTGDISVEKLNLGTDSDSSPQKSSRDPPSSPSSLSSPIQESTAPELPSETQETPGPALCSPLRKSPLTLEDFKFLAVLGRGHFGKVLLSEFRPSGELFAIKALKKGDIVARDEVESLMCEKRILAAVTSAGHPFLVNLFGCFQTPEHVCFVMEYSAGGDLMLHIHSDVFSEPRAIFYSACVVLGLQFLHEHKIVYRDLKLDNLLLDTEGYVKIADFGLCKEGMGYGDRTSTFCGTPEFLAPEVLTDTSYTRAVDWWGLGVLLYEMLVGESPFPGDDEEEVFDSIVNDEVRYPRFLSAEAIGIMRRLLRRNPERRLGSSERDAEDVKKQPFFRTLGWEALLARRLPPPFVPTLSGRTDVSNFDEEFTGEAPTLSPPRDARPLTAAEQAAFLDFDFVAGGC

In the case of Cc1cccc(-c2nc(Nc3ccncc3)c3ccccc3n2)n1 [NK215], the “KINOMEscan CDK4-cyclinD1 (???) CCND1” value ([1]; CDK4-cyclinD1 (???) CCND1) is given as 13, the “KINOMEscan CDK4-cyclinD3” value ([1]; kinase CDK4-cyclinD3) is given as 0 and the “KINOMEscan CDK4” value ([1]; kinase CDK4) is given as 0. For the same compound, the “KINOMEscan CSK” value [2] was 4, the “KINOMEscan NEK6” value [3] was 21 and the “KINOMEscan PRKX” value [4] was 0. The “KINOMEscan MYLK4” value [5] was 7, the “KINOMEscan CHEK1” value [6] was 0 and the “KINOMEscan EGFR” value [7] was 6. For the same compound, the “KINOMEscan DAPK3” value [8] was 17, the “KINOMEscan PKN1” value [9] was 0 and the “KINOMEscan PRKCH” value [10] was 0.
